One may read the IC50 as the concentration at which inhibition is half-maximal.

The values below come from article PMC11206913, “Amoebicidal Effect of COVID Box Molecules against Acanthamoeba: A Study of Cell Death” (Pharmaceuticals, 2024).

In data set [1] the test system is murine macrophages J774A.1. The data set can be described thus: Cytotoxicity against murine macrophages, alamarBlue. Type of data set: cell-based. How it is done: The cytotoxicity of the COVID Box compounds was evaluated against murine macrophages of the J774A.1 cell line (ATCC TIB-67), as previously described. As mentioned in the trophocidal assay, cells were allowed to adhere on a 96-well plate in 37 °C in a 5% CO2 humidified incubator. Later, a well-defined volume of the compounds was added at an affinal concentration of 10 µM to each well. Fluorescence emitted by the alamarBlue^TM was measured after 24 h of incubation and the percentage inhibition value was determined. The Cytotoxicity Concentration 50 (CC50) value of Almitrine and Terconazole was determined following the same method described previously for the trophocidal effect.

The test system of the next data set is A. griffini trophozoites. The data set can be described thus: Trophocidal activity, alamarBlue assay. Type of data set: cell-based. The following applies: Acanthamoeba griffini, read-out: IC50 trophocidal effect. How it is done:
(§1) The trophocidal effect of the 160 molecules from the COVID Box was determined using the alamarBlue™ (Life Technologies, Madrid, Spain) assay as previously described with modifications. Briefly, Acanthamoeba castellanii Neff trophozoites were first seeded in triplicate on a 96-well microtiter plate with 99 μL from a stock solution of 5 × 10^4 cells mL^−1. Subsequently, 1 μL of each compound was added to each well to assess the in vitro amoebicidal activity at 10 μM as the final concentration. Finally, 10 µL of alamarBlue™ Cell Viability Reagent (Bioresource, Europe, Nivelles, Belgium) was added into each well. The plates were then incubated for 96 h at 28 °C with a slight agitation. An EnSpire microplate reader (PerkinElmer, Waltham, MA, USA) was used to measure fluorescence at 570/585 nm. Then, the percentage of inhibition value of the tested COVID Box compounds was determined in comparison with the negative control.
(§2) Almitrine and Terconazole were the COVID Box products selected to evaluate the amoebicidal effect against the trophozoite stage of […] strains of Acanthamoeba: A. castellanii Neff, A. griffini, A. polyphaga, A. culbertsoni, and A. castellanii L10. The inhibition concentration 50 (IC50) value was calculated based on the alamarBlue™ assay, as previously mentioned.
(Resazurin is reduced to fluorescent resorufin, in cell work by metabolically active cells.)

The subject of data set [2] is Acanthamoeba culbertsoni trophozoites. The data set can be described thus: Trophocidal activity, alamarBlue assay. It is filed as cell-based. The following applies: read-out: IC50 trophocidal effect. The protocol:
as §1, §2

For the next data set, the system named is A. castellanii L10 cysts. The data set can be described thus: Cysticidal activity, alamarBlue method. The following applies: Acanthamoeba castellanii, read-out: IC50 cysticidal effect. Type of data set: cell-based, Acanthamoeba castellanii L10. How it is done: (§3) Based on the amoebicidal and cytotoxicity results, the selected compounds, Almitrine and Terconazole, were further investigated on the cyst stage of the various Acanthamoeba strains: A. castellanii Neff, A. griffini, A. polyphaga, A. culbertsoni, and A. castellanii L-10. The cysticidal activity was assessed by the alamarBlue™ method, as described previously. Briefly, in a 96-well plate, a serial dilution of the mentioned drugs was first conducted. Later, cysts were resuspended in PYG medium and were added into each well at a concentration of 5 × 10^4 cysts mL^−1. The plates were examined over a week using an inverted microscope. After 7 days of incubation, the plates were centrifuged at 3000 rpm and the medium was replaced with a new PYG. Finally, 10 μL of alamarBlue^TM Cell Viability Reagent (Biosource, Europe, Nivelles, Belgium) was placed into each well, and the plates were incubated at 28 °C with slight agitation. The emitted fluorescence was measured after 144 h.

Data set [3] deals with A. castellanii Neff cysts. The data set can be described thus: Cysticidal activity, alamarBlue method. It is filed as cell-based. The following applies: Acanthamoeba castellanii, read-out: IC50 cysticidal effect. How it is done: as §3
The next data set in a line: Solubility (remark). The following applies: reason for discarding. Type of data set: physicochemical.
For data set [4], the system named is A. castellanii L10 trophozoites. The data set can be described thus: Trophocidal activity, alamarBlue assay. The following applies: Acanthamoeba castellanii, read-out: IC50 trophocidal effect. Type of data set: cell-based. The protocol:
as §1, §2

Data set [5] relates to A. polyphaga trophozoites. The data set can be described thus: Trophocidal activity, alamarBlue assay. The following applies: Acanthamoeba polyphaga, read-out: IC50 trophocidal effect. Type of data set: cell-based. How it is done: as §1, §2
The next data set has as its system A. polyphaga cysts. The data set can be described thus: Cysticidal activity, alamarBlue method. It is filed as cell-based. The following applies: Acanthamoeba polyphaga, read-out: IC50 cysticidal effect. The protocol:
as §3

For data set [6], the system named is Acanthamoeba culbertsoni trophozoites. The data set can be described thus: Mitochondrial membrane potential, JC-1 dye. It is filed as cell-based. The following applies: IC90, 24 h. The protocol: (§4) Acanthamoeba culbertsoni cells were incubated with IC90 of Terconazole for 24 h. All mean fluorescence intensities were quantified using EVOS M5000 (Life Technologies, Madrid, Spain), processing three different observations in triplicate using an objective (×40), and images of single cells were obtained by a Leica DMI 4000 B inverted confocal microscope with a 63× objective (Leica Microsystems, Germany). All assays were performed in triplicate.
Based on the JC-1 state and the emitted fluorescence, we distinguished two sets in the cellular population: live cells emit high red fluorescence and affected cells with collapsed mitochondrial membrane potential emit a higher green fluorescence.

Data set [7] deals with Acanthamoeba culbertsoni. The data set can be described thus: ATP assay, CellTiter-Glo. Type of data set: cell-based. The following applies: IC90, 24 h of treatment. The protocol:
as §4
After 24 h of drug treatment, the intracellular ATP content was measured using a CellTiter-Glo Luminescent Cell Viability Assay (Promega, Madison, WI, USA). The experiment was carried out according to the manufacturer’s instructions, and the luminescence intensity was measured in a white 96-well plate using an EnSpire® Multimode Plate Reader.
For orientation: ATP-based viability assays read luminescence as a measure of living cells.

Data set [8] has as its system Acanthamoeba culbertsoni trophozoites. The data set can be described thus: ROS generation, CellROX Deep Red staining. It is filed as cell-based. The following applies: IC90, 24 h. How it is done: as §4
The overproduction of intracellular ROS was measured using the CellROX® Deep red fluorescent probe (Invitrogen, Madrid, Spain).

Data set [9] deals with Acanthamoeba culbertsoni. The data set can be described thus: Plasma membrane permeability, SYTOX Green. The following applies: IC90, 24 h. It is filed as cell-based. How it is done: as §4
The effect of the study drug on the cell’s membrane permeability was assessed using specific DNA staining. SYTOX® Green (Molecular Probes, Invitrogen, Madrid, Spain) is a DNA-specific dye impermeable to the cells, whose fluorescence increases 500× upon fixation to the DNA. Briefly, […] trophozoites were incubated for 24 h with IC90 of the drug solution. Subsequently, the SYTOX® Green dye was added at a final concentration of 1 μM for 15 min in the dark.

The test system of data set [10] is Acanthamoeba culbertsoni. The data set can be described thus: Chromatin condensation, Hoechst 33342/PI double stain. It is filed as cell-based. The following applies: IC90, 24 h. The protocol: as §4
A double-stain apoptosis detection kit (Chromatin Condensation/Dead Cell Apoptosis Kit) with Hoechst 33342 and Propidium Iodide (Invitrogen, Madrid, Spain) were used. The experiment was carried out by following the manufacturer’s recommendations.

The test system of data set [11] is Acanthamoeba culbertsoni trophozoites. The data set can be described thus: Actin staining with phalloidin-TRITC. Type of data set: cell-based. The following applies: IC90. The protocol:
As in the immunofluorescence staining, cells were first treated with IC90 of Terconazole and fixed with formaldehyde (4%) over a gelatin-precoated coverslip. Later, the cells were permeabilized with Triton (0.1%), followed by a 1 h incubation with phalloidin–tetramethylrhodamine B isothiocyanate (phalloidin-TRITC; Sigma-Aldrich, Madrid, Spain) at room temperature. Cells were finally washed with PBS 1X and mounted using mounting medium with DAPI. Cells were examined by Z-stack imaging using a Leica DMI 4000 B inverted confocal microscope with a 63× objective (Leica Microsystems, Wetzlar, Germany), a 405 nm laser, and a 532 nm laser.

The test system is the same in data set [12]. The data set can be described thus: Immunofluorescence staining of tubulin. Type of data set: cell-based. The following applies: IC90, 24 h. How it is done:
Immunofluorescence staining of tubulin was performed according to the manufacturer’s staining procedure (Sigma-Aldrich, Madrid, Spain) with slight modifications. Briefly, cells were treated first with Terconazole at IC90. After 24 h of incubation, 50 µL of treated and untreated cell suspensions was placed on a gelatin precoated coverslip for 30 min. Cells were first fixed with formaldehyde (4%) and later permeabilized with Triton (0.3%) for 10 min. Washed with PBS (3X), cells were treated with 5% BSA in PBS 1X/150 mM sucrose for 30 min and washed with glycine 100 mM. At this stage, the trophozoites were incubated with a monoclonal antibody, Anti-α-Tubulin (1:2000), for 2 h at room temperature. Washed twice with PBS, cells were then incubated with the second antibody labeled with Alexa 594 (1:500; from Thermo Fisher Scientific, Rockford, IL, USA) for an hour at room temperature in darkness. Finally, cells were washed with PBS 1X and mounted using mounting medium with DAPI (Sigma-Aldrich; Madrid, Spain). Three-dimensional and maximum projection imaging of the trophozoites was performed by Z-stack imaging using a Leica DMI 4000 B inverted confocal microscope with LAS X software (Leica DMI 4000 B inverted confocal microscope), a 405 nm laser and a 532 nm laser, and a Leica HCX PL Apo 63× Oil Objective.

Data set [13] relates to Acanthamoeba castellanii L10 trophozoites. The data set can be described thus: Comparative label-free proteomics. It is filed as cell-based. The following applies: IC50, 24 h. How it is done: The proteomic analysis was conducted according to Arbon et al., 2022 [39]. A quantity of 10^6 cells was first incubated with Terconazole at IC50 for 24 h, then treated and untreated cells were centrifuged and washed with PBS. Both groups were prepared in three biological replicates. The assay was conducted as detailed in our previous work. Results were analyzed using STRING free software and GraphPad 9 prism (Supplementary Material File S2).

The test system of the next data set is Naegleria fowleri. Set-up: method as in PMID 38718717. The following applies: previous work of the authors; read-out: IC50 against Naegleria fowleri; cited from earlier work.

Take `C=CCNc1nc(NCC=C)nc(N2CCN(C(c3ccc(F)cc3)c3ccc(F)cc3)CC2)n1` [Almitrine]: the “cytotoxicity compared between the two drugs” value in [1] is reported as “lower cytotoxicity than Terconazole”. Moreover, the IC50 in the data set on A. griffini trophozoites turned out to be 5.2 ± 0.4 µM; in data set [2], 32.08 ± 0.06 µM; with A. castellanii L10 cysts, 8.76 ± 0.07 µM; in [3] it was 51.7 ± 2.13 µM. Besides, the solubility entry in the data set “Solubility (remark)” is recorded as “low solubility”.
Take `CC(C)N1CCN(c2ccc(OCC3COC(Cn4cncn4)(c4ccc(Cl)cc4Cl)O3)cc2)CC1` (stereo not drawn) [Terconazole]: the IC50 in [4] was 9.07 µM; in data set [5] it was 4.62 µM; in [3], 10.2 ± 2.01 µM; in the data set on A. polyphaga cysts, 2.24 ± 0.5 µM; in the data set with Naegleria fowleri, 3.68 ± 0.61 µM. In addition, the “decrease in the MMP (ratio red/green JC-1 fluorescence) compared to untreated cells” value in data set [6] was determined as 50%. The “inhibition in the total ATP level relative to negative control” value with Acanthamoeba culbertsoni [7] was found to be 62.5 ± 2.36%. Also, the “ROS production (CellROX Deep Red fluorescence)” value in data set [8] is recorded as “significantly higher fluorescence than the untreated cells”. Also, the “plasma membrane permeability (SYTOX green fluorescence)” value with Acanthamoeba culbertsoni [9] was “statistically higher green fluorescence than the negative control”. Moreover, in the data set on Acanthamoeba culbertsoni [10], the “chromatin condensation (Hoechst/PI staining)” value is “presence of intensely bright blue, fluorescent cells”. Besides, the “actin distribution (phalloidin-TRITC fluorescence)” value in [11] is listed as “lower fluorescence than the untreated cells”. The “tubulin network (immunofluorescence)” value in data set [12] is reported as “highly reduced cell shape with lower fluorescence”. The molecule also returned an affected proteins activated in [13] of 20%. The same molecule gave an affected proteins downregulated in data set [13] of 80%. The “proteins at least twofold differentially expressed” value in data set [13] (of 4566 identified proteins) is 223 proteins.
